These results are taken from patent publication US11235023B2, “Beta-hairpin peptidomimetic with elastase inhibitory activity and aerosol dosage forms thereof” (POLYPHOR AG, priority 2016, dated 2022).

Data set [1] in a line: GLP-compliant 28-day inhalation toxicity study in monkeys. In kind it is in vivo, cynomolgus monkey. The method, then:
In a GLP-compliant 28-day inhalation toxicity study in cynomolgus monkeys, conducted by Charles River Laboratories Preclinical Services, Tranent, Edinburgh, UK, the formulation described in Example 2 and dilutions thereof as well as the vehicle were administered using the Pari eFlow® XL 30 nebulizer device (Pari Pharma, Starnberg, Germany) with an oro-nasal inhalation mask for 60 min per day for 28 days, followed by a 2-week recovery period. […] In total five males and five females were used for each dose of the toxicity study including recovery. Parameters assessed included clinical signs, body weights, electrocardiology, ophthalmic examination, clinical pathology, toxicokinetic parameters in the plasma, gross necropsy findings, organ weights and histopathologic examinations.

For the next data set, the system named is neutrophil elastase. Nature of the data set: LPS/fMLP model of neutrophil activation in the rat, neutrophil elastase activity in BAL supernatant. In kind it is in vivo. To be noted: for NE activity: BAL 6 h post LPS, mean ± s.e.m., vehicle 0.25 ± 0.02.
A short description of data set [2]: Phase-Ib study in CF patients, plasma pharmacokinetics (LC-MS/MS). In kind it is in vivo. The settings on record: human, inhaled or intranasal; for Tmax: inhalation, CF patients; for level at 24 h: read-out: mean plasma concentration 24 hours after inhalation; for half-life: read-out: mean terminal half-life (plasma) (converted). The method, then:
AUC0-∞, AUC0-∞/D, Cmax, Cmax/D of active compound in plasma as primary variables and tmax, t1/2, λ2, […] of active compound in plasma as secondary variables.
Blood samples for the determination of the plasma concentrations of active compound were taken at the following points in time:
On Day 1 at pre-dose, 10 min, and 0.5 h, 1 h, 2 h, 3 h, 4 h, 6 h, 8 h, 12 h, 15 h, and on Day 2 at 24 h post dose (after start of inhalation).
The samples were collected in closed K3-EDTA plasma sampling tubes (Monovette® Sarstedt, Germany). The accepted time-interval for sample handling procedures for each individual study sample, i.e., the time between sample collection and sample centrifugation had not to exceed 60 min, and the time between the end of centrifugation and sample freezing had also not to exceed 60 min.
The samples were centrifuged at approximately 4° C. (±2° C.) at 2200×g for 15 min.
The resulting plasma supernatant was then transferred into 2 polypropylene tubes (1st aliquot of at least 1 mL and backup) and frozen in upright position below […]
For the analysis of active compound in plasma, a validated and highly sensitive liquid chromatography tandem mass spectrometry (LC-MS/MS) method was used.
The pharmacokinetic parameters mentioned above were calculated based on actual blood and sputum sampling times using non-compartmental procedures.

Where two headings read alike, the source gives them in different places. Non-standard residues stand in square brackets, D forms with d. Residues, ends and D or L forms follow the SMILES beside them. Gly(octyl) = CCCCCCCC[C@H](N)C(=O)O

For `CCCCCCCC[C@@H]1NC(=O)[C@@H]2CCCN2C(=O)[C@H]2CCCN2C(=O)[C@H](Cc2ccc(O)cc2)NC(=O)[C@H](CCCCN)NC(=O)[C@H](CCC(N)=O)NC(=O)[C@@H]2CCCN2C(=O)[C@@H]2CCCN2C(=O)[C@H]([C@@H](C)CC)NC(=O)[C@H](CO)NC(=O)[C@H](C)NC(=O)[C@H]([C@@H](C)O)NC(=O)[C@H](CCC(=O)O)NC1=O` [active compound, cyclo(-OctG-Glu-Thr-Ala-Ser-Ile-Pro-Pro-Gln-Lys-Tyr-^DPro-Pro-)] (cyclo([Gly(octyl)]ETASIPPQKY[dP]P)), the NOAEL (commonly the highest tested level that showed no adverse finding) at 28 days in data set [1] (both sexes, in vivo, inhaled or intranasal, cynomolgus monkey, oro-nasal inhalation 60 min per day for 28 days) was found to be 112 mg/kg/day. In data set [1] (cynomolgus monkey, in vivo), the “Haematology and clinical pathology” value is “some minor, toxicologically insignificant changes”. The Histopathologic findings entry in data set [1] (cynomolgus monkey, in vivo) was “increased numbers of alveolar macrophages, perivascular/peribronchiolar infiltrates, and granular eosinophilic deposits in the lung and lymphoid hyperplasia in the tracheobronchial lymph nodes”. For the same compound, the “Gross findings: lung weight” value in data set [1] (male monkeys at 112 mg/kg/day) was “increased lung weight”. The “Body weight, clinical signs, ophthalmic, electrocardiographic and urinary findings” value in data set [1] (monkey, 11.2, 30.1 and 112 mg/kg/day) is “no body weight changes, clinical signs, ophthalmic or electrocardiographic findings or changes in urinary parameters attributable to drug treatment”. Besides, the “Effect on neutrophil elastase activity in BAL fluid” value with neutrophil elastase (0.3, 3 and 30 mg/kg by inhalation 3 h post LPS, 1 h prior to fMLP) is listed as “significantly inhibited”. Besides, in the data set on neutrophil elastase (between dosing period and study termination), the “Test item related clinical signs” value is “No test item related clinical signs were observed”. For the same compound, the NE activity with neutrophil elastase (inhalation 0.3 mg/kg) was 0.10 ± 0.01 mU/mL eq; in the data set on neutrophil elastase (inhalation 3 mg/kg) it was 0.11 ± 0.01 mU/mL eq; in the data set on neutrophil elastase (inhalation 30 mg/kg), 0.07 ± 0.01 mU/mL eq. In addition, the “Efficacy in previous intratracheal study” value in the data set on neutrophil elastase (intratracheal doses of 0.03 to 3 mg/kg) is given as “efficacious”. Moreover, the Tmax (as a rule, the time from dosing to the highest level) in data set [2] (dose group 1 (80 mg)) is 1.3 h; in data set [2] (dose group 2 (160 mg)), 1.5 h; in data set [2] (dose group 3 (320 mg)) it was 2.3 h. In addition, the results for the level at 24 h in data set [2] (dose group 1 (80 mg)), in data set [2] (dose group 2 (160 mg)) and in data set [2] (dose group 3 (320 mg)) were 2.8 ng/mL, 4.4 ng/mL and 15.2 ng/mL, respectively. Further, the half-life – broadly, the time needed for the level to fall by half in the phase considered – was 4.1 h in data set [2] (dose group 1 (80 mg)), 3.5 h in data set [2] (dose group 2 (160 mg)) and 3.8 h in data set [2] (dose group 3 (320 mg)).
